# Measurements published in patent EP4650002A1 (Ludwig-Maximilians-Universität, priority 2024, dated 2025).
# Target: T1, human TLX (Homo sapiens, UniProt Q9Y466)
# T1 construct: expressed in transfected cells; host or cells: HEK293T
# Assay: Gal4 hybrid reporter gene assay (TLX modulation)
# Assay type: cell-based
# Design: key to relative reporter activity: fraction of DMSO control (DMSO = 1)
# Conditions: for EC50: Gal4-TLX hybrid reporter in HEK293T cells, 16 h incubation; for relative reporter activity: DMSO control = 1
# Procedure: In the Tables, the TLX relative reporter activity is expressed as EC50 (in µM) for each listed compound. "EC50" refers to a measure of the concentration of a compound which induces a biological response halfway between the baseline and maximum after a specified exposure time. […] The EC50 is measured via a hybrid reporter gene assay, employing the transfection of a reporter (firefly luciferase with Gal4 response element), a control gene (Renilla luciferase), a transcriptional activator (Gal4-VP16) and a hybrid receptor consisting of the TLX ligand binding domain (LBD) and the Gal4 DNA binding domain (DBD).
# Hybrid reporter gene assays. […] After 24 h, medium was changed to Opti-MEM without supplements and cells were transiently transfected using Lipofectamine LTX reagent (Invitrogen, Carlsbad, CA, USA) according to the manufacturer's protocol. Five hours after transfection, cells were incubated with the test compounds in Opti-MEM supplemented with penicillin (100 U/mL), streptomycin (100 µg/mL) and 0.1% DMSO for 16 h before luciferase activity was measured using the Dual-Glo Luciferase Assay System (Promega) according to the manufacturer's protocol on a Tecan Spark luminometer (Tecan Deutschland GmbH, Crailsheim, Germany). Firefly luminescence was divided by Renilla luminescence and multiplied by 1000 resulting in relative light units (RLU) to normalize for transfection efficiency and cell growth. Fold activation was obtained by dividing the mean RLU of test compound by the mean RLU of the untreated control. All samples were tested in at least three biologically independent experiments in duplicates. For dose-response curve fitting and calculation of EC50 values, the equation "[Agonist] vs. response -- Variable slope (four parameters)" was used in GraphPad Prism (version 7.00, GraphPad Software, La Jolla, CA, USA).
# [1] = minimal remaining or maximum reporter activity after treatment, in brackets below the EC50, <1 agonism, >1 inverse agonism
# T1 sequence (Q9Y466 155-383 limits assumed): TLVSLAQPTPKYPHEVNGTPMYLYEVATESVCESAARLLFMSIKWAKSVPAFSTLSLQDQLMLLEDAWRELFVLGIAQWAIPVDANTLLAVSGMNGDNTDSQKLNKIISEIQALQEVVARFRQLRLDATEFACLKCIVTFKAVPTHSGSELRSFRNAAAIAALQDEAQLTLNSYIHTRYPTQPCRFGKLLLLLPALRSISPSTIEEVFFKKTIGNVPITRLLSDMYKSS
Structure (SMILES),EC50 [µM],relative reporter activity [1],also measured
"Cc1cc(-c2cc(NC(=O)c3ccc4ccccc4c3)cc(C(F)(F)F)c2)ccn1 [compound 80, N-(3-(2-methylpyridin-4-yl)-5-(trifluoromethyl)phenyl)-2-naphthamide]",0.97 ± 0.22,0.29±0.06,
"C=C(C(=O)Nc1cc(-c2ccnc(C)c2)cc(C(F)(F)F)c1)c1ccc2cc(OC)ccc2c1 [compound 83, 2-(6-methoxynaphthalen-2-yl)-N-(3-(2-methylpyridin-4-yl)-5-(trifluoromethyl)-phenyl)propenamide]",,,relative reporter activity (at 10 µM): (0.66±0.07 at 10 µM)
"Cc1cc(-c2cc(NC(=O)C(O)(c3ccccc3)C3CCCC3)cc(C(F)(F)F)c2)ccn1 (stereo not drawn) [compound 84, 2-cyclopentyl-2-hydroxy-N-(3-(2-methylpyridin-4-yl)-5-(trifluoromethyl)phenyl)-2-phenylacetamide]",,,relative reporter activity (at 3 µM): (0.26±0.05 at 3 µM)
"Cc1cc(-c2cc(NC(=O)C3CCCNC3)cc(C(F)(F)F)c2)ccn1 (stereo not drawn) [compound 85, N-(3-(2-methylpyridin-4-yl)-5-(trifluoromethyl)phenyl)piperidine-3-carboxamide]",,,relative reporter activity (at 20 µM): (0.15±0.01 at 20 µM)
"Nc1cc(-c2ccc3occc3c2)cc(C(F)(F)F)c1 [compound 91, 3-(benzofuran-5-yl)-5-(trifluoromethyl)aniline]",,,relative reporter activity (at 10 µM): (0.84±0.06 at 10 µM)
"Nc1cc(-c2ccc3sccc3c2)cc(C(F)(F)F)c1 [compound 92, 3-(benzo[b]thiophen-5-yl)-5-(trifluoromethyl)aniline]",,,relative reporter activity (at 10 µM): inactive at 10 µM
"Nc1cc(-c2ccc3[nH]ccc3c2)cc(C(F)(F)F)c1 [compound 93, 3-(1H-indol-5-yl)-5-(trifluoromethyl)aniline]",1.4 ± 0.4,,
"CN(C)c1ccc(-c2cc(N)cc(C(F)(F)F)c2)cc1 [compound 95, N4',N4'-dimethyl-5-(trifluoromethyl)-[1,1'-biphenyl]-3,4'-diamine]",,,relative reporter activity (at 20 µM): (0.41±0.11 at 20 µM)
"Nc1cc(-c2cccc3[nH]ccc23)cc(C(F)(F)F)c1 [compound 99, 3-(1H-Indol-4-yl)-5-(trifluoromethyl)aniline]",3 ± 0.2,,
"Cc1cn(-c2cccc(N)c2)cn1 [compound 101, 3-(4-methyl-1H-imidazol-1-yl)aniline]",,,relative reporter activity (at 30 µM): inactive at 30 µM
"Cc1cn(-c2cccc(NC(=O)Cc3ccccc3Cl)c2)cn1 [compound 103, 2-(2-chlorophenyl)-N-(3-(4-methyl-1H-imidazol-1-yl)phenyl)acetamide]",1.9 ± 0.5,0.18±0.10,
"Cc1cc(-c2cccc(N)c2)ccn1 [compound 104, 3-(2-methylpyridin-4-yl)aniline]",,,relative reporter activity (at 50 µM): (0.73±0.06 at 50 µM)
"Cn1cc(-c2cccc(N)c2)cn1 [compound 105, 3-(1-methyl-1H-pyrazol-4-yl)aniline]",,,relative reporter activity (at 30 µM): inactive at 30 µM
"Cc1cc(N)cc(-c2ccnc(C)c2)c1 [compound 106, 3-methyl-5-(2-methylpyridin-4-yl)aniline]",,,relative reporter activity (at 30 µM): (0.44±0.09 at 30 µM)
"Cc1cc(-c2cc(N)ccc2C(F)(F)F)ccn1 [compound 107, 3-(2-methylpyridin-4-yl)-4-(trifluoromethyl)aniline]",,,relative reporter activity (at 50 µM): (0.39±0.04 at 50 µM)
"CC(=O)c1ccc(-c2ccnc(C)c2)cc1N [compound 112, 1-(2-amino-4-(2-methylpyridin-4-yl)phenyl)ethan-1-one]",18 ± 10,0.58±0.09,
"Cc1cc(-c2cc(N)cc(Cl)c2Cl)ccn1 [compound 114, 3,4-dichloro-5-(2-methylpyridin-4-yl)aniline]",9.6 ± 0.7,,
"Cc1cc(-c2cc(N)cc3[nH]ccc23)ccn1 [compound 115, 4-(2-methylpyridin-4-yl)-1H-indol-6-amine]",3.8 ± 0.7,,
"Cc1cc(-c2cc(N)c3cc[nH]c3c2)ccn1 [compound 116, 6-(2-methylpyridin-4-yl)-1H-indol-4-amine]",,,relative reporter activity (at 50 µM): inactive at 50 µM
Cc1cc(-c2cc(N)c3cn[nH]c3c2)ccn1 [compound 117],7.9 ± 1.5,0.31±0.03,

# The next lines start with results.
EC50 [µM],relative reporter activity [1],Structure (SMILES),also measured
1.2 ± 0.2,0.39±0.05,"Cc1cc(-c2cc(NC(=O)c3cc4ccccc4s3)cc(C(F)(F)F)c2)ccn1 [compound 81, N-(3-(2-methylpyridin-4-yl)-5-(trifluoromethyl)phenyl)benzo[b]thiophene-2-carboxamide]",
0.6 ± 0.2,0.17±0.09,"Cc1cc(-c2cc(NC(=O)C3CCC3)cc(C(F)(F)F)c2)ccn1 [compound 82, N-(3-(2-methylpyridin-4-yl)-5-(trifluoromethyl)phenyl)cyclobutanecarboxamide]",
3.3 ± 0.7,0.32±0.03,"Cc1cc(-c2cc(NC(=O)c3cc(C)[nH]n3)cc(C(F)(F)F)c2)ccn1 [compound 86, 5-methyl-N-(3-(2-methylpyridin-4-yl)-5-(trifluoromethyl)phenyl)-1H-pyrazole-3-carboxamide]",
4.6 ± 2.1,0.30±0.05,"CC(=O)c1cc(-c2cc(N)cc(C(F)(F)F)c2)ccn1 [compound 87, 1-(4-(3-amino-5-(trifluoromethyl)phenyl)pyridin-2-yl)ethan-1-one]",
1.6 ± 0.8,,"Cc1cc(-c2cc(N)cc(C(F)(F)F)c2)cc(C)n1 [compound 88, 3-(2,6-dimethylpyridin-4-yl)-5-(trifluoromethyl)aniline]",
1.1 ± 0.1,,"Cn1ccc2cc(-c3cc(N)cc(C(F)(F)F)c3)ccc21 [compound 90, 3-(1-methyl-1H-indol-5-yl)-5-(trifluoromethyl)aniline]",
3.7 ± 0.6,,"Nc1cc(-c2ccn3ccnc3c2)cc(C(F)(F)F)c1 [compound 94, 3-(imidazo[1,2-a]pyridin-7-yl)-5-(trifluoromethyl)aniline]",
2.3 ± 0.7,,"Nc1cc(-c2ccc3c(c2)CCN3)cc(C(F)(F)F)c1 [compound 96, 3-(indolin-5-yl)-5-(trifluoromethyl)aniline]",
1.6 ± 0.9,,"Cn1ncc2cc(-c3cc(N)cc(C(F)(F)F)c3)ccc21 [compound 97, 3-(1-methyl-1H-indazol-5-yl)-5-(trifluoromethyl)aniline]",
0.4 ± 0.07,0.29±0.03,"Cn1ccc2cc(-c3cc(N)cc(C(F)(F)F)c3)cnc21 [compound 98, 3-(1-methyl-1H-pyrrolo[2,3-b]pyridin-5-yl)-5-(trifluoromethyl)aniline]",
18 ± 1,,"Cn1ccc2c(-c3cc(N)cc(C(F)(F)F)c3)cccc21 [compound 100, 3-(1-Methyl-1H-indol-4-yl)-5-(trifluoromethyl)aniline]",relative reporter activity (at 10 µM): 0.55±0.06
15 ± 4,,"COc1cc(N)cc(-c2ccnc(C)c2)c1 [compound 108, 3-methoxy-5-(2-methylpyridin-4-yl)aniline]",
5.9 ± 2.2,0.40±0.11,"Cc1cc(-c2cc(N)cc(C#N)c2)ccn1 [compound 109, 3-amino-5-(2-methylpyridin-4-yl)benzonitrile]",
16 ± 10,0.34±0.09,"Cc1cc(-c2cc(N)ccc2OC(F)(F)F)ccn1 [compound 110, 3-(2-methylpyridin-4-yl)-4-(trifluoromethoxy)aniline]",
10 ± 7,,"Cc1cc(-c2cc(N)cc(Cl)c2)ccn1 [compound 111, 3-chloro-5-(2-methylpyridin-4-yl)aniline]",
13.6 ± 0.6,,"Cc1cc(-c2cc(N)cc(OC(F)(F)F)c2)ccn1 [compound 113, 3-(2-methylpyridin-4-yl)-5-(trifluoromethoxy)aniline]",
